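Cells were grown in 96-well plates and exposed to each compound for 48 hours at five concentrations; endpoints were interpolated linearly between bracketing concentrations, or set to the highest concentration if not reached. GI50 is the concentration that inhibits growth by half.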 Active and inactive are the calls of the source. No stated cut-off is given here; in the data, active = GI50 up to about 1.1 µM and inactive = higher. *1 amine or outer side, *2 acyl side, *3 side chain or, on linkers, in order; H or OH if unused. Where a SMILES comes first, the peptide text is derived from it. Bridges are numbered along the chain shown (N, C = ends). Roman numbers before positions name the chains, in order. [ ]: non-standard residue; d: D form. Actinocin(1to9) = Cc1c2oc3c(C)ccc(C(=O)[*:2])c3nc-2c(C(=O)[*:1])c(N)c1=O; NMeV = CN[CH](C(=O)O)C(C)C; Sar = CNCC(=O)O
Legend:
Test in all cases: growth of human tumour cells (NCI), 48 h
NCI-H23 = tested on: NCI-H23
HCT-116 = tested on: HCT-116
DU-145 = tested on: DU-145
SK-MEL-2 = tested on: SK-MEL-2
HCC 2998 = tested on: HCC 2998
MOLT-4 = tested on: MOLT-4
UO-31 = tested on: UO-31
A549 = tested on: A549
EKVX = tested on: EKVX
RXF 393 = tested on: RXF 393
NCI-H522 = tested on: NCI-H522
T47D = tested on: T47D
OVCAR-4 = tested on: OVCAR-4
SNB-19 = tested on: SNB-19
MDA-MB-231 = tested on: MDA-MB-231
Hs-578T = tested on: Hs-578T
SF-295 = tested on: SF-295
PC-3 = tested on: PC-3
UACC-257 = tested on: UACC-257
OVCAR-5 = tested on: OVCAR-5

| Compound | GI50 (NCI-H23) | GI50 (HCT-116) | GI50 (DU-145) | GI50 (SK-MEL-2) | GI50 (HCC 2998) | GI50 (MOLT-4) | GI50 (UO-31) | GI50 (A549) | GI50 (EKVX) | GI50 (RXF 393) | GI50 (NCI-H522) | GI50 (T47D) | GI50 (OVCAR-4) | GI50 (SNB-19) | GI50 (MDA-MB-231) | GI50 (Hs-578T) | GI50 (SF-295) | GI50 (PC-3) | GI50 (UACC-257) | GI50 (OVCAR-5) |
| --- | --- | --- | --- | --- | --- | --- | --- | --- | --- | --- | --- | --- | --- | --- | --- | --- | --- | --- | --- | --- |
| COC(=O)[C@@H]1c2cc3c(c(O)c2[C@@H](OC2OC(C)C(OC)C(C)(OC)C2OC)C[C@]1(C)O)C(=O)c1c(O)cc2c(c1C3=O)O[C@H]1O[C@]2(C)[C@H](O)[C@@H](N(C)C)[C@@H]1O (stereo not given in full) | 0.00581 µM (active) | 0.00189 µM (active) | 0.0859 µM (active) | 0.00337 µM (active) | 0.00433 µM (active) | 0.0146 µM (active) | 0.301 µM (active) | 0.0156 µM (active) | 0.0266 µM (active) | 0.0132 µM (active) | 0.0138 µM (active) | 0.0276 µM (active) | 0.0191 µM (active) | 0.00502 µM (active) | 0.0288 µM (active) | 0.0203 µM (active) | 0.0154 µM (active) | 0.0468 µM (active) | 0.0143 µM (active) | 0.0815 µM (active) |
| O=C1OC[C@@H]2Cc3c([nH]c4ccccc34)[C@@H](c3ccc(O)cc3)N12 | 19.3 µM (inactive) | 18.7 µM (inactive) | 40.3 µM (inactive) | 22 µM (inactive) | 38.4 µM (inactive) | 31.3 µM (inactive) | 30.6 µM (inactive) | 26.8 µM (inactive) | 36.3 µM (inactive) | 17.3 µM (inactive) | 29.3 µM (inactive) | 51.5 µM (inactive) | 32.4 µM (inactive) | 54.2 µM (inactive) | 29.6 µM (inactive) | 88.3 µM (inactive) | 26.4 µM (inactive) | 24 µM (inactive) | 29.9 µM (inactive) | 39.4 µM (inactive) |
| COc1ccc(CC2NC(=O)C(NC(=O)c3c4nc5c(C(=O)NC6C(=O)NC(Cc7ccc(OC)cc7)C(=O)N7CCCC7C(=O)N(C)CC(=O)N(C)C(C(C)C)C(=O)OC6C)ccc(C)c5oc-4c(C)c(=O)c3N)C(C)OC(=O)C(C(C)C)N(C)C(=O)CN(C)C(=O)C3CCCN3C2=O)cc1 (stereo not given) (I: TY(Me)P[Sar][NMeV] / II: TY(Me)P[Sar][NMeV]; ester I:1-I:C, II:1-II:C; linker I:N-II:N via Actinocin(1to9); configuration not given here) | 0.00147 µM (active) | < 0.001 µM (active) | < 0.001 µM (active) | 0.015 µM (active) | 0.0012 µM (active) | < 0.001 µM (active) | 0.00822 µM (active) | < 0.001 µM (active) | 0.164 µM (active) | 0.01 µM (active) | < 0.001 µM (active) | < 0.001 µM (active) | 0.0485 µM (active) | < 0.001 µM (active) | 0.0371 µM (active) | 0.022 µM (active) | 0.01 µM (active) | < 0.001 µM (active) | < 0.001 µM (active) | 0.00267 µM (active) |
| CCCCCCCCCCCCCCCC(=O)N(CCCCCCCCCCC(=O)O)CC(O)C(O)C(OC1OC(CO)C(O)C(O)C1O)C(O)CO (stereo not given) | 40.9 µM (inactive) | 49.2 µM (inactive) | 91 µM (inactive) | 19 µM (inactive) | 21.1 µM (inactive) | 28.4 µM (inactive) | 35.1 µM (inactive) | > 100 µM (inactive) | 37.6 µM (inactive) | 48.1 µM (inactive) | 39.3 µM (inactive) | 40.7 µM (inactive) | 60.3 µM (inactive) | 24.5 µM (inactive) | > 100 µM (inactive) | 40.5 µM (inactive) | 15.6 µM (inactive) | 37.8 µM (inactive) | 22 µM (inactive) | > 100 µM (inactive) |
| CN(CCCNC(=O)c1n[nH]c2c1ccc1ccccc12)CCCNC(=O)c1n[nH]c2c1ccc1ccccc12 | 17.9 µM (inactive) | 12.7 µM (inactive) | 15.7 µM (inactive) | 10.6 µM (inactive) | 1.9 µM (inactive) | 10.4 µM (inactive) | 14.6 µM (inactive) | 19.3 µM (inactive) | 21.4 µM (inactive) | 14.4 µM (inactive) | 16.8 µM (inactive) | 16 µM (inactive) | 17.3 µM (inactive) | 18.8 µM (inactive) | 10.9 µM (inactive) | 16.8 µM (inactive) | 17.3 µM (inactive) | 14.7 µM (inactive) | 4.24 µM (inactive) | 20.4 µM (inactive) |
| CC(=O)Oc1ccc2c(c1)CC[C@@H]1C2[C@@H](O[N+](=O)[O-])C[C@@]2(C)C1CC[C@@H]2O (stereo not given in full) | 42.9 µM (inactive) | 29.4 µM (inactive) | 28.7 µM (inactive) | 32.1 µM (inactive) | 10.6 µM (inactive) | 24.5 µM (inactive) | 43.9 µM (inactive) | 37.3 µM (inactive) | 16.8 µM (inactive) | 38.7 µM (inactive) | 21.1 µM (inactive) | 47.4 µM (inactive) | 52.1 µM (inactive) | 35.6 µM (inactive) | 39.1 µM (inactive) | 14.4 µM (inactive) | 35.5 µM (inactive) | 47.3 µM (inactive) | 67.5 µM (inactive) | 33 µM (inactive) |
| O=C1NC(NNc2ccccc2)=N/C1=C\c1ccccc1O | 39.1 µM (inactive) | 48.2 µM (inactive) | 67 µM (inactive) | 75.2 µM (inactive) | 80.9 µM (inactive) | 51.6 µM (inactive) | > 100 µM (inactive) | 72.6 µM (inactive) | 66.8 µM (inactive) | 40 µM (inactive) | 80.4 µM (inactive) | 34.1 µM (inactive) | 50.9 µM (inactive) | > 100 µM (inactive) | 68.2 µM (inactive) | > 100 µM (inactive) | 50.2 µM (inactive) | 33.6 µM (inactive) | 40.9 µM (inactive) | > 100 µM (inactive) |
| O=C(O)C1CC2C3CCC2C1C3=O (stereo not given) | > 100 µM (inactive) | > 100 µM (inactive) | > 100 µM (inactive) | > 100 µM (inactive) | > 100 µM (inactive) | > 100 µM (inactive) | > 100 µM (inactive) | > 100 µM (inactive) | > 100 µM (inactive) | > 100 µM (inactive) | > 100 µM (inactive) | > 100 µM (inactive) | > 100 µM (inactive) | > 100 µM (inactive) | > 100 µM (inactive) | > 100 µM (inactive) | > 100 µM (inactive) | > 100 µM (inactive) | > 100 µM (inactive) | > 100 µM (inactive) |
| Cc1ccc(Nc2nnc(-c3ccc4c(c3)OCO4)o2)c(C)c1 | > 100 µM (inactive) | > 100 µM (inactive) | > 100 µM (inactive) | > 100 µM (inactive) | > 100 µM (inactive) | 1.71 µM (inactive) | > 100 µM (inactive) | > 100 µM (inactive) | 82 µM (inactive) | > 100 µM (inactive) | 30.5 µM (inactive) | 36.2 µM (inactive) | > 100 µM (inactive) | 40.2 µM (inactive) | 62.2 µM (inactive) | > 100 µM (inactive) | > 100 µM (inactive) | 50.1 µM (inactive) | > 100 µM (inactive) | > 100 µM (inactive) |
| N#Cc1ccc(-c2nc3c(N)nc(-c4ccccc4)nc3o2)cc1 | > 100 µM (inactive) | 31.8 µM (inactive) | 84.1 µM (inactive) | > 100 µM (inactive) | > 100 µM (inactive) | > 100 µM (inactive) | > 100 µM (inactive) | 88.7 µM (inactive) | > 100 µM (inactive) | 23.8 µM (inactive) | 25 µM (inactive) | > 100 µM (inactive) | 17.3 µM (inactive) | 55.1 µM (inactive) | 13.3 µM (inactive) | > 100 µM (inactive) | 51.1 µM (inactive) | > 100 µM (inactive) | > 100 µM (inactive) | > 100 µM (inactive) |
| FC(F)(F)C1(C(F)(F)F)C2CCC3(CC(F)(F)C(F)(F)S3)C1C2 (stereo not given) | 35.7 µM (inactive) | 20.2 µM (inactive) | 73.6 µM (inactive) | 22.6 µM (inactive) | > 100 µM (inactive) | 23.4 µM (inactive) | 28.8 µM (inactive) | 38.9 µM (inactive) | 32.4 µM (inactive) | 31.8 µM (inactive) | 56.2 µM (inactive) | > 100 µM (inactive) | 80.5 µM (inactive) | > 100 µM (inactive) | > 100 µM (inactive) | > 100 µM (inactive) | 55.1 µM (inactive) | 37.2 µM (inactive) | 26.1 µM (inactive) | 48.6 µM (inactive) |
| COC(=O)[C@]12CC[C@H]3CN(C(=O)OCc4ccccc4)[C@H]([C@H]31)[C@H](c1ccco1)N2 | 17.3 µM (inactive) | 40.8 µM (inactive) | > 100 µM (inactive) | 55.1 µM (inactive) | > 100 µM (inactive) | 19.8 µM (inactive) | > 100 µM (inactive) | 37.2 µM (inactive) | 39.9 µM (inactive) | > 100 µM (inactive) | 14.1 µM (inactive) | 42.1 µM (inactive) | 0.61 µM (active) | > 100 µM (inactive) | 82 µM (inactive) | 42.4 µM (inactive) | 32.1 µM (inactive) | 33.2 µM (inactive) | 29.9 µM (inactive) | > 100 µM (inactive) |
| COc1c(-c2nc3ccc(N4CCN(C)CC4)nc3[nH]2)cc(OC)c2c1nc(CCl)n2C | 20.1 µM (inactive) | 32.2 µM (inactive) | 25.4 µM (inactive) | 11.6 µM (inactive) | 15.7 µM (inactive) | 18.1 µM (inactive) | 16.5 µM (inactive) | 27.8 µM (inactive) | 19.4 µM (inactive) | 16 µM (inactive) | 10.5 µM (inactive) | 16 µM (inactive) | 18.3 µM (inactive) | 28.2 µM (inactive) | 19.2 µM (inactive) | 32.9 µM (inactive) | 31.8 µM (inactive) | 11.2 µM (inactive) | 22.6 µM (inactive) | 21.6 µM (inactive) |

— ChEMBL document CHEMBL1201862, “PubChem BioAssay data set” (2004)
